This note sets out measurements from patent EP4799619A1, “COMPOUND TARGETING EGR-1 AND USE THEREOF FOR TREATMENT OF ATOPIC DERMATITIS” (AgeraMedi, Inc., priority 2023, dated 2025).

The target in the test is EGR-1 (Homo sapiens, UniProt P18146). In words: EGR-1 DNA binding activity assay (EDBA). Further details: made in house. The following applies: EGR-1 DNA binding inhibitory activity; EGR-1 overexpressing cell lysate; absorbance at 450 nm; compound concentration not given. The method, then: In this experiment, the inhibitory effect of the compounds of the present invention on EGR-1 binding activity was evaluated using an EGR-1 DNA binding activity assay (EDBA).
Chain of EGR-1 (P18146 whole entry): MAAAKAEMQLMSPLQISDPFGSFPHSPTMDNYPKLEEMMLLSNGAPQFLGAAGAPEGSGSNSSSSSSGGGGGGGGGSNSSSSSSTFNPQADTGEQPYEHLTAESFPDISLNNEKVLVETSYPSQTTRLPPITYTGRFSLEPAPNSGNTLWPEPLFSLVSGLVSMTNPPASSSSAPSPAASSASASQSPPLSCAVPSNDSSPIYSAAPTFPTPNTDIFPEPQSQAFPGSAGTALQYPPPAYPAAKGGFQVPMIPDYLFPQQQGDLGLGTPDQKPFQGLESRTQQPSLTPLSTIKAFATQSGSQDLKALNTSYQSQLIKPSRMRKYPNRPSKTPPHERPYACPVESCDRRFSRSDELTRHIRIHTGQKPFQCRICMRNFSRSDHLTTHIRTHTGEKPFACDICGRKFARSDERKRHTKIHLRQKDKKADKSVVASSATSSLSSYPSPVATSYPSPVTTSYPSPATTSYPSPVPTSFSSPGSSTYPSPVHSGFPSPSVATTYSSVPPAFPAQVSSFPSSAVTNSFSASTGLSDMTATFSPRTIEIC
Single-stranded sense and antisense oligonucleotides of the following EGR-1 binding sequence (EBS) were prepared by outsourcing to Bioneer Co., Ltd. (Daejeon, Korea). In this case, the 5'-end of the sense oligonucleotide was labeled with biotin. The sense and antisense oligonucleotides were heated at 95 °C for 5 minutes and then left overnight at room temperature to hybridize the sense and antisense oligonucleotides. Hereinafter, the hybridized sense and antisense oligonucleotides are referred to as biotin-EBS. • Sense sequence: biotin-5'-[…]-3' • Antisense sequence: 5'-[…]-3'
Avidin protein was coated on a 96-well plate (purchased from Thermo Fisher Scientific), and biotin-EBS was added to the plate at a concentration of 0.5 pmol/50 µL/well, followed by reaction at 37 °C for 1 hour to allow biotin-EBS oligonucleotide to be attached to the plate. After washing three times with phosphate buffer saline containing 0.05% Tween 20 (PBS/Tween 20) to remove unattached biotin-EBS oligonucleotides, 200 µL of PBS/Tween 20 solution containing 2% bovine serum albumin (BSA) was added to each well, followed by reaction at 37 °C for 1 hour to block the surface of the plate where no oligonucleotide was attached.
The solution containing the sample compound and the EGR-1 protein was added to the biotin-EBS oligonucleotide coated plate prepared in step (2).
The compound sample (1 µL) was reacted with the EGR-1 overexpressing cell lysate containing 10 mM Tris, pH 7.5, 50 mM KCl, 2% BSA and 8% glycerol at room temperature for 30 minutes, and then added to a reaction well coated with biotin-EBS and further reacted at room temperature for one hour. After washing three times with PBS/Tween 20 solution, an EGR-1 antibody was added to the PBS solution supplemented with 2% BSA and 5 mM NaCl in an amount of 50 µL per each well. The mixture was incubated at room temperature for one hour, washed three times with PBS/Tween 20 solution, and then treated with horseradish peroxidase-conjugated secondary antibody (Goat anti-rabbit IgG antibody, Cell Signaling Technology company, Danvers, Mass., USA) diluted by 1:1000 at room temperature for one hour. After washing five times with PBS/Tween 20 solution, a substrate tetramethylbenzidine solution was added to each well in an amount of 50 µL. After reacting for 5 minutes, the reaction was stopped by adding 100 µL of 2 N sulfuric acid solution. The DNA binding inhibitory activity of EGR-1 was measured by absorbance at 450 nm according to Equation 1 below. EGR-1 DNA binding inhibitory activity (%) = 100−{(As/Ap)×100} [formula]
As: absorbance of a sample prepared by reacting an EGR-1-overexpressing cell lysate with the compound.
Ap: absorbance of the sample treated only with EGR-1-overexpressing cell lysate.
`COc1ccc2c(c1)NC(=O)/C2=N\NC(=S)Nc1ccccc1` [Compound 22, (Z)-2-(6-methoxy-2-oxoindolin-3-ylidene)-N-phenylhydrazinethioamide]: the “Inhibition Rate (%)” value turned out to be 51.33%.
Turning to `O=C1Nc2c(Br)cccc2/C1=N/NC(=S)Nc1ccccc1` [Compound 46, (Z)-2-(7-bromo-2-oxoindolin-3-ylidene)-N-phenylhydrazinethioamide], the “Inhibition Rate (%)” value is 11.33%.
For `O=C1Nc2cc(Cl)ccc2/C1=N/NC(=S)Nc1ccccc1` [Compound 60, (Z)-2-(6-chloro-2-oxoindolin-3-ylidene)-N-phenylhydrazinethioamide], the “Inhibition Rate (%)” value is 48.07%.
On to `O=C1Nc2cccc(Br)c2/C1=N/NC(=S)Nc1ccccc1` [Compound 43, (Z)-2-(4-bromo-2-oxoindolin-3-ylidene)-N-phenylhydrazinethioamide], for which the “Inhibition Rate (%)” value was 23.00%.
For `O=C1Nc2cccc(Br)c2/C1=N/NC(=S)Nc1cccc([N+](=O)[O-])c1` [Compound 35, (Z)-2-(4-bromo-2-oxoindolin-3-ylidene)-N-(3-nitrophenyl)hydrazinethioamide], the “Inhibition Rate (%)” value worked out at 55.33%.
Consider `O=C1Nc2c(Br)cccc2/C1=N/NC(=S)Nc1cccc([N+](=O)[O-])c1` [Compound 49, (Z)-2-(7-bromo-2-oxoindolin-3-ylidene)-N-(3-nitrophenyl)hydrazinethioamide], for which the “Inhibition Rate (%)” value is listed as 50.33%.
For `O=C1Nc2ccccc2/C1=N/NC(=S)Nc1cccc([N+](=O)[O-])c1` [Compound 47, (Z)-N-(3-nitrophenyl)-2-(2-oxoindolin-3-ylidene)hydrazinethioamide], the “Inhibition Rate (%)” value is reported as 35.33%.
Regarding `COc1cccc(NC(=S)N/N=C2\C(=O)Nc3ccc(Br)cc32)c1` [Compound 52, (Z)-2-(5-bromo-2-oxoindolin-3-ylidene)-N-(3-methoxyphenyl)hydrazinethioamide], the “Inhibition Rate (%)” value stood at 9.00%.
For the molecule `Cc1ccc2c(c1)/C(=N/NC(=S)Nc1ccc(C#N)cc1)C(=O)N2` [Compound 71, (Z)-N-(4-cyanophenyl)-2-(5-methyl-2-oxoindolin-3-ylidene)hydrazinethioamide], the “Inhibition Rate (%)” value stood at 29.93%.
As to `O=C1Nc2c(F)cccc2/C1=N/NC(=S)Nc1ccc(Br)cc1` [Compound 19, (Z)-N-(4-bromophenyl)-2-(7-fluoro-2-oxoindolin-3-ylidene)hydrazinethioamide], the “Inhibition Rate (%)” value is given as 47.77%.
Regarding `O=C1Nc2ccc(OC(F)(F)F)cc2/C1=N/NC(=S)Nc1cccc([N+](=O)[O-])c1` [Compound 77, (Z)-N-(3-nitrophenyl)-2-(2-oxo-5-(trifluoromethoxy)indolin-3-ylidene)hydrazinethioamide], the “Inhibition Rate (%)” value was found to be 37.37%.
In the case of `O=C1Nc2ccc(Br)cc2/C1=N/NC(=S)Nc1ccc([N+](=O)[O-])cc1` [Compound 38, (Z)-2-(5-bromo-2-oxoindolin-3-ylidene)-N-(4-nitrophenyl)hydrazinethioamide], the “Inhibition Rate (%)” value worked out at 51.33%.
Then `Cc1cccc(NC(=S)N/N=C2\C(=O)Nc3ccc(C)cc32)c1` [Compound 75, (Z)-2-(5-methyl-2-oxoindolin-3-ylidene)-N-(m-tolyl)hydrazinethioamide], with 39.27%.
On to `COc1ccccc1NC(=S)N/N=C1\C(=O)Nc2cccc(Cl)c21` [Compound 61, (Z)-2-(4-chloro-2-oxoindolin-3-ylidene)-N-(2-methoxyphenyl)hydrazinethioamide], for which the “Inhibition Rate (%)” value is reported as 43.03%.
Take `O=C1Nc2cc(Br)ccc2/C1=N/NC(=S)Nc1ccccc1` [Compound 45, (Z)-2-(6-bromo-2-oxoindolin-3-ylidene)-N-phenylhydrazinethioamide]: the “Inhibition Rate (%)” value came out at 9.33%.
With `NC(=S)N/N=C1\C(=O)Nc2ccc(Br)cc21` [Compound 34, (Z)-2-(5-bromo-2-oxoindolin-3-ylidene)hydrazinethioamide], the “Inhibition Rate (%)” value came out at 46.00%.
As for `COc1ccc2c(c1)NC(=O)/C2=N\NC(=S)NCc1ccccc1` [Compound 69, (Z)-N-benzyl-2-(6-methoxy-2-oxoindolin-3-ylidene)hydrazin-1-carbothioamide], the “Inhibition Rate (%)” value was determined as 14.17%.
The result for `O=C1Nc2ccc(F)cc2/C1=N/NC(=S)Nc1ccc(F)cc1` [Compound 14, (Z)-2-(5-fluoro-2-oxoindolin-3-ylidene)-N-(4-fluorophenyl)hydrazinethioamide] reads 17.80%; that for `NNC(=S)Nc1ccc(F)cc1` [Compound 2, N-(4-fluorophenyl)hydrazinethioamide], 25.70%; that for `N#Cc1ccc(NC(=S)NN)cc1` [Compound 4, N-(4-cyanophenyl)hydrazinethioamide], 16.27%.
With `N#Cc1ccc(NC(=S)N/N=C2\C(=O)Nc3c(F)cccc32)cc1` [Compound 20, (Z)-N-(4-cyanophenyl)-2-(7-fluoro-2-oxoindolin-3-ylidene)hydrazinethioamide], the “Inhibition Rate (%)” value worked out at 44.93%.
Consider `COc1ccc(NC(=S)NN)cc1OC` [Compound 56, N-(3,4-dimethoxyphenyl)hydrazinethioamide], for which the “Inhibition Rate (%)” value came out at 12.67%.
In the case of `O=C1Nc2c(F)cccc2/C1=N/NC(=S)Nc1ccc([N+](=O)[O-])cc1` [Compound 65, (Z)-2-(7-fluoro-2-oxoindolin-3-ylidene)-N-(4-nitrophenyl)hydrazinethioamide], the “Inhibition Rate (%)” value was determined as 43.03%.
For the molecule `N#Cc1ccc(NC(=S)N/N=C2\C(=O)Nc3ccc(F)cc32)cc1` [Compound 16, (Z)-N-(4-cyanophenyl)-2-(5-fluoro-2-oxoindolin-3-ylidene)hydrazinethioamide], the “Inhibition Rate (%)” value was 40.57%.
`CCNC(=S)NN` [Compound 6, N-ethylhydrazinethioamide]: the “Inhibition Rate (%)” value was found to be 27.00%.
As to `COc1ccccc1NC(=S)N/N=C1\C(=O)Nc2ccccc21` [Compound 39, (Z)-N-(2-methoxyphenyl)-2-(2-oxoindolin-3-ylidene)hydrazinethioamide], the “Inhibition Rate (%)” value stood at 47.33%.
`Cc1cccc(NC(=S)N/N=C2\C(=O)Nc3ccc(F)cc32)c1` [Compound 64, (Z)-2-(5-fluoro-2-oxoindolin-3-ylidene)-N-(m-tolyl)hydrazinethioamide]: the “Inhibition Rate (%)” value is 37.90%.
Turning to `O=C1Nc2cccc(Cl)c2/C1=N/NC(=S)Nc1ccccc1` [Compound 59, (Z)-2-(4-chloro-2-oxoindolin-3-ylidene)-N-phenylhydrazinethioamide], the “Inhibition Rate (%)” value is recorded as 40.17%.
`Cc1ccc2c(c1)/C(=N/NC(=S)Nc1ccccc1)C(=O)N2` [Compound 72, (Z)-2-(5-methyl-2-oxoindolin-3-ylidene)-N-phenylhydrazinethioamide]: the “Inhibition Rate (%)” value is reported as 19.57%.
`O=C1Nc2ccc(OC(F)(F)F)cc2/C1=N/NC(=S)Nc1ccc(F)cc1` [Compound 78, (Z)-N-(4-fluorophenyl)-2-(2-oxo-5-(trifluoromethoxy)indolin-3-ylidene)hydrazinethioamide]: the “Inhibition Rate (%)” value is given as 33.93%.
For the molecule `Cc1ccc2c(c1)/C(=N/NC(=S)Nc1cccc(C(F)(F)F)c1)C(=O)N2` [Compound 32, (Z)-2-(5-methyl-2-oxoindolin-3-ylidene)-N-(3-(trifluoromethyl)phenyl)hydrazinethioamide], the “Inhibition Rate (%)” value is on record as 40.93%.
